These results are taken from patent US20170304388A1, “NEW INDICATION OF CARDIOVASCULAR DRUGS FOR PREPARATION OF CANCER INHIBITION PHARMACEUTICAL COMPOSITION” (LAUNX BIOMEDICAL CO., LTD., priority 2014, published 2017).

Common to all, as to type: cell-based
Experiment [1] relates to MCF7 (Mammary Gland, Adenocarcinoma). The experiment can be described thus: Cell viability analysis (WST-1), MCF7. The settings on record: Homo sapiens, MCF7, 72 h, Table 3, drug 10 μM, WST-1, OD450 nm, read-out: survival rate (viability) of cancer cells, MCF7. On the technique in general: Formazan colour is commonly taken as a measure of viable cells.
The test system of experiment [2] is TSGH-8301 (Urinary Bladder Carcinoma). Nature of the experiment: Cell viability analysis (WST-1), TSGH-8301. The settings on record: 72 h, Table 3, drug 10 μM, WST-1, OD450 nm, read-out: survival rate (viability) of cancer cells, TSGH.
Experiment [3] has as its system MKN-45 (Gastric Adenocarcinoma). The experiment can be described thus: Cell viability analysis (WST-1), MKN-45. As to conditions: Homo sapiens, MKN-45, 72 h, Table 3, drug 10 μM, WST-1, OD450 nm, read-out: survival rate (viability) of cancer cells, MKN-45.
For experiment [4], the system named is HeLa (Cervix Adenocarcinoma). The experiment can be described thus: Cell viability analysis (WST-1), HeLa. As to conditions: Homo sapiens, HeLa, 72 h, Table 3, drug 10 μM, WST-1, OD450 nm, read-out: survival rate (viability) of cancer cells, HeLa.
Experiment [5] deals with A375 (Amelanotic Melanoma). Nature of the experiment: Cell viability analysis (WST-1), A375. The settings on record: Homo sapiens, A-375, 72 h, Table 3, drug 10 μM, WST-1, OD450 nm, lower viability = better inhibition, read-out: survival rate (viability) of cancer cells, A375.
The subject of experiment [6] is H1650 (Lung Adenocarcinoma). Nature of the experiment: Cell viability analysis (WST-1), H1650. As to conditions: Homo sapiens, NCI-H1650, 72 h, Table 3, drug 10 μM, WST-1, OD450 nm, read-out: survival rate (viability) of cancer cells, H1650.
Experiment [7] concerns PC3 (Prostate Adenocarcinoma). Nature of the experiment: Cell viability analysis (WST-1), PC3. As to conditions: 72 h, Table 3, drug 10 μM, WST-1, OD450 nm, read-out: survival rate (viability) of cancer cells, PC3.
The test system of experiment [8] is AGS (Gastric Adenocarcinoma). Nature of the experiment: Cell viability analysis (WST-1), AGS. As to conditions: 72 h, Table 3, drug 10 μM, WST-1, OD450 nm, read-out: survival rate (viability) of cancer cells, AGS.
Experiment [9] concerns HepG2 (Hepatocellular Carcinoma). Nature of the experiment: Cell viability analysis (WST-1), HepG2. The settings on record: Homo sapiens, HepG2, 72 h, Table 3, drug 10 μM, WST-1, OD450 nm, read-out: survival rate (viability) of cancer cells, HepG2.
Experiment [10] has as its system cancer cell lines. The experiment can be described thus: Growth inhibitory effects on the panel of cancer cell lines. As to conditions: drug 10 μM, 72 hours; for Numbers of inhibitory effect on cancer cell line: count of cancer cell lines inhibited; for inhibition effect on different cancer cell lines (in words): WST-1.
Experiment [11] deals with A549 (Lung Adenocarcinoma). The experiment can be described thus: Cell viability analysis (WST-1), A549. The settings on record: Homo sapiens, A549, 72 h, Table 3, drug 10 μM, WST-1, OD450 nm, read-out: survival rate (viability) of cancer cells, A549.
In experiment [12] the test system is HL-60 (Acute Promyelocytic Leukemia). Nature of the experiment: Cell viability analysis (WST-1), HL-60. As to conditions: Homo sapiens, HL-60; Table 3; drug 10 μM, 72 hours, WST-1, OD450 nm; read-out: survival rate (viability) of cancer cells, HL-60.
For experiment [13], the system named is LoVo (Colorectal Adenocarcinoma). Nature of the experiment: Cell viability analysis (WST-1), LoVo. The settings on record: Homo sapiens, LoVo, 72 h, Table 3, drug 10 μM, WST-1, OD450 nm, read-out: survival rate (viability) of cancer cells, LoVo.
Experiment [14] deals with HCT116 (Colorectal Carcinoma). The experiment can be described thus: Cell viability analysis (WST-1), HCT116. The settings on record: Homo sapiens, HCT-116, 72 h, Table 3, drug 10 μM, WST-1, OD450 nm, read-out: survival rate (viability) of cancer cells, HCT116 (WT).

As usually defined, the viability is a read-out of living cells in per cent, often relative to untreated cells. In the case of `NS(=O)(=O)c1cc2c(cc1Cl)NC(C(Cl)Cl)NS2(=O)=O` (centres unmarked) [Trichlormethiazide (Achletin), Trichlormethiazide], the viability at 10 µM came out at 64.2% in experiment [1]; 95.6% in experiment [2]; 71% in [3]; 85.7% in experiment [4]; 128% in experiment [5]; 76.7% in experiment [6]. Further, the viability at 10 µM came out at 122% in [7]; 79.3% in experiment [8]; 95.1% in [9]; 106% in experiment [11]; 102% in [12]; 107% in experiment [13]. Moreover, the viability at 10 µM in [14] was 112%. The “Numbers of inhibitory effect on cancer cell line” value (“Numbers of inhibitory effect” below) in [10] stood at 0. Further, the “inhibition effect on different cancer cell lines (in words)” value in [10] was “significant inhibition effect”.
For the compound `O=C(O)c1nn(Cc2ccc(Cl)cc2Cl)c2ccccc12` [Lonidamine], the viability at 10 µM in [1] turned out to be 86.9%; in [2] it was 86.4%; in experiment [3], 93.3%; in experiment [4] it was 61.6%; in experiment [5], 65.8%; in [6], 65.9%. The viability at 10 µM stood at 102% in [7]; 69.9% in experiment [8]; 114% in experiment [9]; 109% in experiment [11]; 115% in [12]; 96.1% in experiment [13]. Moreover, in experiment [14], the viability at 10 µM turned out to be 81.2%. For the same compound, the “Numbers of inhibitory effect” value in experiment [10] is 0. For the same compound, the “inhibition effect on different cancer cell lines (in words)” value in [10] is “significant inhibition effect”.
Regarding `CC(=O)Oc1ccc(C(c2ccc(OC(C)=O)cc2)c2ccccn2)cc1` [Bisacodyl], the viability at 10 µM was determined as 65% in experiment [1]; 104% in experiment [2]; 132% in [3]; 89.2% in experiment [4]; 88% in [5]; 93.6% in [6]. The viability at 10 µM in [7] was found to be 83.7%; in [8] it was 107%; in experiment [9], 100%; in experiment [11], 66.7%; in experiment [12] it was 96%; in experiment [13], 85.5%. The viability at 10 µM in experiment [14] is 122%. The “Numbers of inhibitory effect” value in experiment [10] worked out at 0. Besides, the “inhibition effect on different cancer cell lines (in words)” value in experiment [10] is “significant inhibition effect”.
`CCCNCC(O)COc1ccccc1C(=O)CCc1ccccc1` (centres unmarked) [Propafenone (Rytmonorm), Propafenone]: the viability at 10 µM turned out to be 120% in experiment [1]; 61.1% in experiment [2]; 84.7% in experiment [3]; 109% in experiment [4]; 95.8% in experiment [5]; 92.5% in [6]. The viability at 10 µM was 104% in experiment [7]; 79.8% in experiment [8]; 86% in [9]; 94.1% in [11]; 113% in experiment [12]; 105% in [13]. In addition, the viability at 10 µM in experiment [14] came out at 109%. In addition, the “Numbers of inhibitory effect” value in [10] was found to be 0.
